Laboratory results published in PubChem BioAssay (NCI).
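Exposure lasted 48 hours, with cells grown in 96-well plates and compounds tested at five concentrations. GI50 is the concentration that inhibits growth by half. TGI is the concentration that stops growth completely.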

Assays:
Experiment in all cases: NCI tumour cell line growth inhibition, 48 h
786-0 renal = test system: 786-0 renal
A498 renal = test system: A498 renal
A549 NSCLC = test system: A549 NSCLC
ACHN renal = test system: ACHN renal
BT-549 breast = test system: BT-549 breast
CAKI-1 renal = test system: CAKI-1 renal
CCRF-CEM leukemia = test system: CCRF-CEM leukemia
COLO 205 colon = test system: COLO 205 colon
DU-145 prostate = test system: DU-145 prostate
EKVX NSCLC = test system: EKVX NSCLC
HCC-2998 colon = test system: HCC-2998 colon
HCT-116 colon = test system: HCT-116 colon
HCT-15 colon = test system: HCT-15 colon
HL-60(TB) leukemia = test system: HL-60(TB) leukemia
HOP-62 NSCLC = test system: HOP-62 NSCLC
HOP-92 NSCLC = test system: HOP-92 NSCLC
HS 578T breast = test system: HS 578T breast
HT29 colon = test system: HT29 colon
IGROV1 ovarian = test system: IGROV1 ovarian
K-562 leukemia = test system: K-562 leukemia
KM12 colon = test system: KM12 colon
LOX IMVI melanoma = test system: LOX IMVI melanoma
M14 melanoma = test system: M14 melanoma
MALME-3M melanoma = test system: MALME-3M melanoma
MCF7 breast = test system: MCF7 breast
MDA-MB-231 breast = test system: MDA-MB-231 breast
MDA-MB-435 = test system: MDA-MB-435
MOLT-4 leukemia = test system: MOLT-4 leukemia
NCI-H226 lung = test system: NCI-H226 lung
NCI-H460 lung = test system: NCI-H460 lung
NCI-H522 lung = test system: NCI-H522 lung
NCI/ADR-RES ovarian = test system: NCI/ADR-RES ovarian
OVCAR-3 ovarian = test system: OVCAR-3 ovarian
OVCAR-4 ovarian = test system: OVCAR-4 ovarian
OVCAR-5 ovarian = test system: OVCAR-5 ovarian
OVCAR-8 ovarian = test system: OVCAR-8 ovarian
PC-3 prostate = test system: PC-3 prostate
RPMI-8226 leukemia = test system: RPMI-8226 leukemia
RXF 393 renal = test system: RXF 393 renal
SF-268 CNS = test system: SF-268 CNS
SF-295 CNS = test system: SF-295 CNS
SF-539 CNS = test system: SF-539 CNS
SK-MEL-2 melanoma = test system: SK-MEL-2 melanoma
SK-MEL-28 melanoma = test system: SK-MEL-28 melanoma
SK-MEL-5 melanoma = test system: SK-MEL-5 melanoma
SK-OV-3 ovarian = test system: SK-OV-3 ovarian
SN12C renal = test system: SN12C renal
SNB-19 CNS = test system: SNB-19 CNS
SNB-75 CNS = test system: SNB-75 CNS
SR leukemia = test system: SR leukemia
SW-620 colon = test system: SW-620 colon
T-47D breast = test system: T-47D breast
TK-10 renal = test system: TK-10 renal
U251 CNS = test system: U251 CNS
UACC-257 melanoma = test system: UACC-257 melanoma
UACC-62 melanoma = test system: UACC-62 melanoma
UO-31 renal = test system: UO-31 renal

SMILES: CN1CCN(Cc2ccc(NC(=O)c3cncc(C#Cc4cnc5ccc(NCCCO)nn45)c3)cc2C(F)(F)F)CC1
- GI50 (786-0 renal): 299 nM
- TGI (786-0 renal): 969 nM
- GI50 (A498 renal): 314 nM
- TGI (A498 renal): 1040 nM
- GI50 (A549 NSCLC): 202 nM
- TGI (A549 NSCLC): 1110 nM
- GI50 (ACHN renal): 483 nM
- TGI (ACHN renal): 1490 nM
- GI50 (BT-549 breast): 343 nM
- TGI (BT-549 breast): 864 nM
- GI50 (CAKI-1 renal): 177 nM
- TGI (CAKI-1 renal): 1220 nM
- GI50 (CCRF-CEM leukemia): 24.8 nM
- TGI (CCRF-CEM leukemia): 1810 nM
- GI50 (COLO 205 colon): 77.5 nM
- TGI (COLO 205 colon): 188 nM
- GI50 (DU-145 prostate): 170 nM
- TGI (DU-145 prostate): 1060 nM
- GI50 (EKVX NSCLC): 148 nM
- TGI (EKVX NSCLC): 924 nM
- GI50 (HCC-2998 colon): 222 nM
- TGI (HCC-2998 colon): 1410 nM
- GI50 (HCT-116 colon): 40.5 nM
- TGI (HCT-116 colon): 221 nM
- GI50 (HCT-15 colon): 851 nM
- TGI (HCT-15 colon): 2990 nM
- GI50 (HL-60(TB) leukemia): 73.3 nM
- TGI (HL-60(TB) leukemia): 462 nM
- GI50 (HOP-62 NSCLC): 150 nM
- TGI (HOP-62 NSCLC): 999 nM
- GI50 (HOP-92 NSCLC): 21.1 nM
- TGI (HOP-92 NSCLC): 124 nM
- GI50 (HS 578T breast): 85.5 nM
- TGI (HS 578T breast): 370 nM
- GI50 (HT29 colon): 108 nM
- TGI (HT29 colon): 439 nM
- GI50 (IGROV1 ovarian): 104 nM
- TGI (IGROV1 ovarian): 399 nM
- GI50 (K-562 leukemia): 5 nM
- TGI (K-562 leukemia): 1840 nM
- GI50 (KM12 colon): 11.2 nM
- TGI (KM12 colon): 876 nM
- GI50 (LOX IMVI melanoma): 59.9 nM
- TGI (LOX IMVI melanoma): 270 nM
- GI50 (M14 melanoma): 96.3 nM
- TGI (M14 melanoma): 280 nM
- GI50 (MALME-3M melanoma): 97.5 nM
- TGI (MALME-3M melanoma): 438 nM
- GI50 (MCF7 breast): 43.7 nM
- TGI (MCF7 breast): 404 nM
- GI50 (MDA-MB-231 breast): 41.5 nM
- TGI (MDA-MB-231 breast): 303 nM
- GI50 (MDA-MB-435): 71.1 nM
- TGI (MDA-MB-435): 608 nM
- GI50 (MOLT-4 leukemia): 43.5 nM
- TGI (MOLT-4 leukemia): 1620 nM
- GI50 (NCI-H226 lung): 62 nM
- TGI (NCI-H226 lung): 311 nM
- GI50 (NCI-H460 lung): 171 nM
- TGI (NCI-H460 lung): 610 nM
- GI50 (NCI-H522 lung): 68.5 nM
- TGI (NCI-H522 lung): 247 nM
- GI50 (NCI/ADR-RES ovarian): 7220 nM
- TGI (NCI/ADR-RES ovarian): 18200 nM
- GI50 (OVCAR-3 ovarian): 137 nM
- TGI (OVCAR-3 ovarian): 795 nM
- GI50 (OVCAR-4 ovarian): 166 nM
- TGI (OVCAR-4 ovarian): 1330 nM
- GI50 (OVCAR-5 ovarian): 183 nM
- TGI (OVCAR-5 ovarian): 1990 nM
- GI50 (OVCAR-8 ovarian): 204 nM
- TGI (OVCAR-8 ovarian): 1030 nM
- GI50 (PC-3 prostate): 243 nM
- TGI (PC-3 prostate): 2820 nM
- GI50 (RPMI-8226 leukemia): 206 nM
- TGI (RPMI-8226 leukemia): 898 nM
- GI50 (RXF 393 renal): 169 nM
- TGI (RXF 393 renal): 548 nM
- GI50 (SF-268 CNS): 126 nM
- TGI (SF-268 CNS): 850 nM
- GI50 (SF-295 CNS): 457 nM
- TGI (SF-295 CNS): 1720 nM
- GI50 (SF-539 CNS): 23.9 nM
- TGI (SF-539 CNS): 125 nM
- GI50 (SK-MEL-2 melanoma): 79 nM
- TGI (SK-MEL-2 melanoma): 178 nM
- GI50 (SK-MEL-28 melanoma): 245 nM
- TGI (SK-MEL-28 melanoma): 1000 nM
- GI50 (SK-MEL-5 melanoma): 617 nM
- TGI (SK-MEL-5 melanoma): 1270 nM
- GI50 (SK-OV-3 ovarian): 308 nM
- TGI (SK-OV-3 ovarian): 1590 nM
- GI50 (SN12C renal): 90.7 nM
- TGI (SN12C renal): 1200 nM
- GI50 (SNB-19 CNS): 304 nM
- TGI (SNB-19 CNS): 2920 nM
- GI50 (SNB-75 CNS): 26.3 nM
- TGI (SNB-75 CNS): 137 nM
- GI50 (SR leukemia): 32.2 nM
- TGI (SR leukemia): 859 nM
- GI50 (SW-620 colon): 71.4 nM
- TGI (SW-620 colon): 368 nM
- GI50 (T-47D breast): 414 nM
- TGI (T-47D breast): 3260 nM
- GI50 (TK-10 renal): 384 nM
- TGI (TK-10 renal): 2150 nM
- GI50 (U251 CNS): 290 nM
- TGI (U251 CNS): 1020 nM
- GI50 (UACC-257 melanoma): 318 nM
- TGI (UACC-257 melanoma): 1500 nM
- GI50 (UACC-62 melanoma): 210 nM
- TGI (UACC-62 melanoma): 974 nM
- GI50 (UO-31 renal): 1320 nM
- TGI (UO-31 renal): 3690 nM
